Measured values reported in ChEMBL document CHEMBL1127654, “An epimer of 5'-noraristeromycin and its antiviral properties” (1994).
≈ marks a conversion by molar mass, not a printed value.

Columns and labels:
E6SM [1] = assay: Minimal inhibitory concentration (MIC) required to reduce HSV(herpes simplex virus)-1 (KOS) cytopathicity in E6SM cells; assay type: functional; details: Homo sapiens
E6SM [2] = assay: Minimal inhibitory concentration (MIC) required to reduce HSV(herpes simplex virus)-2 cytopathicity E6SM cells; assay type: functional; details: Homo sapiens
E6SM [3] = assay: Minimal inhibitory concentration (MIC) required to reduce TK(Thymidine kinase)-HSV-1 (B2006) cytopathicity in E6SM cells; assay type: functional; details: Homo sapiens
E6SM [4] = assay: Minimal inhibitory concentration (MIC) required to reduce TK-HSV-1 (VMW 1837) cytopathicity in E6SM cells; assay type: functional; details: Homo sapiens
HEL [5] = assay: Minimal inhibitory concentration (MIC) required to reduce CMV (Davis) in HEL cells; assay type: functional; details: Homo sapiens
HEL [6] = assay: Minimal inhibitory concentration (MIC) required to reduce CMV (cytomegalo virus) (AD-169) in HEL cells; assay type: functional, Homo sapiens
HEL [7] = assay: Minimal inhibitory concentration (MIC) required to reduce VZV (YS) in HEL cells; assay type: functional; details: Homo sapiens
HEL [8] = assay: Minimal inhibitory concentration (MIC) required to reduce VZV (varicella zoster virus) (OKA) in HEL cells; assay type: functional; details: Homo sapiens
HeLa [9] = assay: Minimal inhibitory concentration (MIC) required to reduce Polio-1 in HeLa cells; assay type: functional; details: Homo sapiens
[10] = tested on: Respiratory syncytial virus; assay: Minimal inhibitory concentration (MIC) required to reduce RSV (long) in HeLa cells; assay type: functional; details: human respiratory syncytial virus
HeLa [11] = assay: Minimal inhibitory concentration (MIC) required to reduce VSV in HeLa cells; assay type: functional; details: Homo sapiens
HeLa [12] = assay: Minimal inhibitory concentration (MIC) required to reduce coxsackie B4 in HeLa cells; assay type: functional; details: Homo sapiens
MDCK [13] = assay: Minimal inhibitory concentration (MIC) required to reduce Influenza A virus in MDCK cells; assay type: functional; details: Canis lupus familiaris
MDCK [14] = assay: Minimal inhibitory concentration (MIC) required to reduce Influenza B in MDCK cells; assay type: functional; details: Canis lupus familiaris
MT4 [15] = assay: Minimal inhibitory concentration (MIC) required to reduce HIV(human immunodeficiency virus)-1 in MT-4 cells; assay type: functional
MT4 [16] = assay: Minimal inhibitory concentration (MIC) required to reduce HIV-2 in MT-4 cells; assay type: functional; details: Homo sapiens
Vero [17] = assay: Minimal inhibitory concentration (MIC) required to reduce Junin virus in Vero cells; assay type: functional; details: Chlorocebus sabaeus
Vero [18] = assay: Minimal inhibitory concentration (MIC) required to reduce Parainfluenza-3 virus in Vero cells; assay type: functional; details: Chlorocebus sabaeus
Vero [19] = assay: Minimal inhibitory concentration (MIC) required to reduce Reovirus-1 in Vero cells; assay type: functional; details: Chlorocebus sabaeus
Vero [20] = assay: Minimal inhibitory concentration (MIC) required to reduce forest virus in Vero cells; assay type: functional; details: Chlorocebus sabaeus
Vero [21] = assay: Minimal inhibitory concentration (MIC) required to reduce Sindbis in virus in Vero cells; assay type: functional; details: Chlorocebus sabaeus
Vero [22] = assay: Minimal inhibitory concentration (MIC) required to reduce Tacaribe virus in Vero cells; assay type: functional; details: Chlorocebus sabaeus
E6SM [23] = assay: cells; details: Homo sapiens
E6SM [24] = assay: cells; details: Homo sapiens; remark: listed apart in the source
MDCK [25] = assay: Minimal inhibitory concentration (MIC) required to reduce Influenza B virus in MDCK cells; assay type: functional; details: Canis lupus familiaris

| SMILES | MIC50 (E6SM [1]) [µg/mL] | MIC50 (E6SM [2]) [µg/mL] | MIC50 (E6SM [3]) [µg/mL] | MIC50 (E6SM [4]) [µg/mL] | MIC50 (HEL [6]; Homo sapiens, read-out: MIC50) [µg/mL] | MIC50 (HEL [7]) [µg/mL] | MIC50 (HEL [8]) [µg/mL] | MIC50 (HeLa [9]) [µg/mL] | MIC50 [10] [µg/mL] | MIC50 (HeLa [11]) [µg/mL] | MIC50 (HeLa [12]) [µg/mL] | MIC50 (MDCK [13]) [µg/mL] | MIC50 (Vero [17]) [µg/mL] | MIC50 (Vero [18]) [µg/mL] | MIC50 (Vero [19]) [µg/mL] | MIC50 (Vero [20]) [µg/mL] | MIC50 (Vero [21]) [µg/mL] | MIC50 (Vero [22]) [µg/mL] | MIC50 (E6SM [23]) [µg/mL] | MIC50 (E6SM [24]) [µg/mL] | also measured |
| --- | --- | --- | --- | --- | --- | --- | --- | --- | --- | --- | --- | --- | --- | --- | --- | --- | --- | --- | --- | --- | --- |
| Nc1ncnc2c1ncn2[C@@H]1C[C@@H](O)[C@@H](O)[C@H]1O | > 300 | 300 (≈ 1190 µM) | 200 (≈ 796 µM) | 200 (≈ 796 µM) | 5 (≈ 19.9 µM) | 1 (≈ 3.98 µM) | 6 (≈ 23.9 µM) | > 400 | 100 (≈ 398 µM) | > 0.2 | > 400 | > 200 | 30 (≈ 119 µM) | 0.04 (≈ 0.159 µM) | 0.3 (≈ 1.19 µM) | > 200 | > 200 | 27 (≈ 107 µM) | 0.1 (≈ 0.398 µM) | 0.2 (≈ 0.796 µM) | MIC50 (HEL [5]): 3 µg/mL (≈ 11.9 µM); MIC50 (MDCK [14]): > 200 µg/mL; MIC50 (MT4 [15]): > 0.8 µg/mL; MIC50 (MT4 [16]): > 0.8 µg/mL |
| Nc1nccc2c1ncn2[C@@H]1C[C@H](CO)[C@@H](O)[C@H]1O [3-DEAZAARISTEROMYCIN A] | > 400 | > 400 | > 400 | > 400 | > 7 | > 40 | > 40 | > 400 | 100 (≈ 378 µM) | > 7 | > 400 | > 100 | 7 (≈ 26.5 µM) | > 1 | 2 (≈ 7.57 µM) | > 400 | 4 (≈ 15.1 µM) | 7 (≈ 26.5 µM) | 1 (≈ 3.78 µM) | 1 (≈ 3.78 µM) | MIC50 (HEL [6]): 7 µg/mL (≈ 26.5 µM); MIC50 (MDCK [25]): > 30 µg/mL |
| Nc1ncnc2c1ncn2[C@@H]1C=C(CO)[C@@H](O)[C@H]1O [NEOPLANOCIN A] | 70 (≈ 266 µM) | > 100 | 20 (≈ 76 µM) | 70 (≈ 266 µM) | 0.6 (≈ 2.28 µM) | 1 (≈ 3.8 µM) | 6 (≈ 22.8 µM) | > 40 | > 1 | 2 (≈ 7.6 µM) | > 40 | 1 (≈ 3.8 µM) | 1 (≈ 3.8 µM) | 0.2 (≈ 0.76 µM) | 0.7 (≈ 2.66 µM) | 7 (≈ 26.6 µM) | 2 (≈ 7.6 µM) | 1 (≈ 3.8 µM) | 0.2 (≈ 0.76 µM) | 2 (≈ 7.6 µM) | MIC50 (HEL [6]): 0.4 µg/mL (≈ 1.52 µM); MIC50 (MDCK [25]): > 3 µg/mL |
